Data as given in patent US6355799B1, “Substituted benzene compounds, process for their preparation, and herbicidal and defoliant compositions containing them” (ISK Americas Incorporated, priority 1997, dated 2002).

How the values were obtained:
Assay type in all cases: in vivo
[1] = system: field corn (Zea mays L., var. Dekalb 535, CORN); assay: Post-emerge test, crop safety; conditions: phytotoxicity rating 0-100 (0 no damage, 100 complete death), 14 days after application
In short: (§1)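 Applied at 15–1000 g ai/ha from acetone in 187 l/ha spray volume. Post-emergence applications included 0.25% v/v non-ionic surfactant and reached plants sown 8–21 days before. Pre-emergence applications were incorporated by surface watering. Efficacy or crop damage was rated on a 0–100 scale after 14 days.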

[2] = system: upland rice (Oryza sp., var. Tebonnet, RICE); assay: Post-emerge test, crop safety; conditions: phytotoxicity rating 0-100 (0 no damage, 100 complete death), 14 days after application
In short: as §1

[3] = system: green foxtail (Setaria viridis, SETVI); assay: Pre-emerge test, greenhouse herbicide activity screening; conditions: pre-emerge, rated 14 days after application, 0 = no damage, 100 = complete death
In short: as §1

[4] = system: barnyardgrass (Echinochloa crus-galli, ECHCG); assay: as above; conditions: pre-emerge, rated 14 days after application, 0 = no damage, 100 = complete death
In short: as §1

[5] = system: sicklepod (Cassia obtusifolia, CASOB); assay: as above; conditions: pre-emerge, rated 14 days after application, 0 = no damage, 100 = complete death
In short: as §1

[6] = system: lambsquarters (Chenopodium album, CHEAL); assay: as above; conditions: pre-emerge, rated 14 days after application, 0 = no damage, 100 = complete death
In short: as §1

[7] = system: large crabgrass (Digitaria sanguinalis, DIGSA); assay: as above; conditions: pre-emerge, rated 14 days after application, 0 = no damage, 100 = complete death
In short: as §1

[8] = system: johnsongrass (Sorghum halepense, SORHA); assay: as above; conditions: pre-emerge, rated 14 days after application, 0 = no damage, 100 = complete death
In short: as §1

[9] = system: common ragweed (Ambrosia artemisizfolia L., AMBEL); assay: as above; conditions: pre-emerge, rated 14 days after application, 0 = no damage, 100 = complete death
In short: as §1

[10] = system: velvetleaf (Abutilon theophrasti, ABUTH); assay: as above; conditions: pre-emerge, rated 14 days after application, 0 = no damage, 100 = complete death
In short: as §1

[11] = system: ivyleaf morningglory (Ipomoea hederacea, IPOHE); assay: as above; conditions: pre-emerge, rated 14 days after application, 0 = no damage, 100 = complete death
In short: as §1

[12] = system: field corn (Zea mays L., var. Dekalb 535, CORN); assay: Pre-emerge test, crop safety; conditions: pre-emerge, rated 14 days after application, 0 = no damage, 100 = complete death
In short: (§2)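 Plants grown in 10 cm pots of sandy loam mix received acetone-dissolved compounds through a moving flat-fan nozzle. Doses ranged from 15 to 1000 g ai/ha. Pre-emerge pots were seeded one day earlier, post-emerge pots 8–21 days earlier. Fourteen days on, each pot was graded 0–100 for damage.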

[13] = system: upland rice (Oryza sp., var. Tebonnet, RICE); assay: Pre-emerge test, crop safety; conditions: pre-emerge, rated 14 days after application, 0 = no damage, 100 = complete death
In short: as §2

[14] = system: green foxtail (Setaria viridis, SETVI); assay: Post-emerge test, greenhouse herbicide activity screening; conditions: phytotoxicity rating 0-100 (0 no damage, 100 complete death), 14 days after application
In short: (§3)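 Compounds in acetone were track-sprayed at 15-1000 g ai/ha (187 l/ha) on sandy loam pots: pre-emerge one day after seeding, post-emerge at 2-3 leaf stage with 0.25% v/v non-ionic surfactant. Phytotoxicity was rated 14 days later on a 0 (no damage) to 100 (complete death) scale.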

[15] = system: barnyardgrass (Echinochloa crus-galli, ECHCG); assay: as above; conditions: phytotoxicity rating 0-100 (0 no damage, 100 complete death), 14 days after application
In short: as §3

[16] = system: sicklepod (Cassia obtusifolia, CASOB); assay: as above; conditions: phytotoxicity rating 0-100 (0 no damage, 100 complete death), 14 days after application
In short: as §3

[17] = system: redroot pigweed (Amaranthus retroflexus, AMARE); assay: as above; conditions: phytotoxicity rating 0-100 (0 no damage, 100 complete death), 14 days after application
In short: as §3

[18] = system: lambsquarters (Chenopodium album, CHEAL); assay: as above; conditions: phytotoxicity rating 0-100 (0 no damage, 100 complete death), 14 days after application
In short: as §3

[19] = system: large crabgrass (Digitaria sanguinalis, DIGSA); assay: as above; conditions: phytotoxicity rating 0-100 (0 no damage, 100 complete death), 14 days after application
In short: as §3

[20] = system: johnsongrass (Sorghum halepense, SORHA); assay: as above; conditions: phytotoxicity rating 0-100 (0 no damage, 100 complete death), 14 days after application
In short: as §3

[21] = system: common ragweed (Ambrosia artemisizfolia L., AMBEL); assay: as above; conditions: phytotoxicity rating 0-100 (0 no damage, 100 complete death), 14 days after application
In short: as §3

[22] = system: velvetleaf (Abutilon theophrasti, ABUTH); assay: as above; conditions: phytotoxicity rating 0-100 (0 no damage, 100 complete death), 14 days after application
In short: as §3

[23] = system: ivyleaf morningglory (Ipomoea hederacea, IPOHE); assay: as above; conditions: phytotoxicity rating 0-100 (0 no damage, 100 complete death), 14 days after application
In short: as §3

[24] = system: redroot pigweed (Amaranthus retroflexus, AMARE); assay: Pre-emerge test, greenhouse herbicide activity screening; conditions: pre-emerge, rated 14 days after application, 0 = no damage, 100 = complete death
In short: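 Visual ratings on a 0-100 scale (0 no damage, 100 all plants dead) were taken at 14 days after treatment. Rates of 15-1000 g ai/ha in acetone, 187 l/ha, were sprayed onto soil one day after planting (pre-emerge) or onto 2-3 leaf plants with 0.25% v/v surfactant (post-emerge).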

COc1c(Cl)cc(F)c(-n2c(=O)cc(C(F)(F)F)n(C)c2=O)c1NC(=O)c1ccc(C)cc1 [2-24]
Post-emerge Herbicidal Activity CORN (crop damage) ([1]; 63 g ai/ha): 70
Post-emerge Herbicidal Activity CORN (crop damage) ([1]; 250 g ai/ha): 95
Post-emerge Herbicidal Activity RICE (crop damage) ([2]; 63 g ai/ha): 70
Post-emerge Herbicidal Activity RICE (crop damage) ([2]; 250 g ai/ha): 90
Pre-emerge Herbicidal Activity SETVI (phytotoxicity rating, scale 0-100) ([3]; 63 g ai/ha): 100
Pre-emerge Herbicidal Activity SETVI (phytotoxicity rating, scale 0-100) ([3]; 250 g ai/ha): 100
Pre-emerge Herbicidal Activity ECHCG (phytotoxicity rating, scale 0-100) ([4]; 63 g ai/ha): 95
Pre-emerge Herbicidal Activity ECHCG (phytotoxicity rating, scale 0-100) ([4]; 250 g ai/ha): 100
Pre-emerge Herbicidal Activity CASOB (phytotoxicity rating, scale 0-100) ([5]; 63 g ai/ha): 90
Pre-emerge Herbicidal Activity CASOB (phytotoxicity rating, scale 0-100) ([5]; 250 g ai/ha): 100
Pre-emerge Herbicidal Activity CHEAL (phytotoxicity rating, scale 0-100) ([6]; 63 g ai/ha): 100
Pre-emerge Herbicidal Activity CHEAL (phytotoxicity rating, scale 0-100) ([6]; 250 g ai/ha): 100
Pre-emerge Herbicidal Activity DIGSA (phytotoxicity rating, scale 0-100) ([7]; 63 g ai/ha): 100
Pre-emerge Herbicidal Activity DIGSA (phytotoxicity rating, scale 0-100) ([7]; 250 g ai/ha): 100
Pre-emerge Herbicidal Activity SORHA (phytotoxicity rating, scale 0-100) ([8]; 63 g ai/ha): 95
Pre-emerge Herbicidal Activity SORHA (phytotoxicity rating, scale 0-100) ([8]; 250 g ai/ha): 100
Pre-emerge Herbicidal Activity AMBEL (phytotoxicity rating, scale 0-100) ([9]; 63 g ai/ha): 100
Pre-emerge Herbicidal Activity AMBEL (phytotoxicity rating, scale 0-100) ([9]; 250 g ai/ha): 100
Pre-emerge Herbicidal Activity ABUTH (phytotoxicity rating, scale 0-100) ([10]; 63 g ai/ha): 100
Pre-emerge Herbicidal Activity ABUTH (phytotoxicity rating, scale 0-100) ([10]; 250 g ai/ha): 100
Pre-emerge Herbicidal Activity IPOHE (phytotoxicity rating, scale 0-100) ([11]; 63 g ai/ha): 100
Pre-emerge Herbicidal Activity IPOHE (phytotoxicity rating, scale 0-100) ([11]; 250 g ai/ha): 100
Pre-emerge crop damage CORN (phytotoxicity rating, scale 0-100) ([12]; 63 g ai/ha): 95
Pre-emerge crop damage CORN (phytotoxicity rating, scale 0-100) ([12]; 250 g ai/ha): 98
Pre-emerge crop damage RICE (phytotoxicity rating, scale 0-100) ([13]; 63 g ai/ha): 90
Pre-emerge crop damage RICE (phytotoxicity rating, scale 0-100) ([13]; 250 g ai/ha): 99
Post-emerge Herbicidal Activity SETVI ([14]; 63 g ai/ha): 20
Post-emerge Herbicidal Activity SETVI ([14]; 250 g ai/ha): 70
Post-emerge Herbicidal Activity ECHCG ([15]; 63 g ai/ha): 70
Post-emerge Herbicidal Activity ECHCG ([15]; 250 g ai/ha): 95
Post-emerge Herbicidal Activity CASOB ([16]; 63 g ai/ha): 100
Post-emerge Herbicidal Activity CASOB ([16]; 250 g ai/ha): 100
Post-emerge Herbicidal Activity AMARE ([17]; 63 g ai/ha): 100
Post-emerge Herbicidal Activity AMARE ([17]; 250 g ai/ha): 100
Post-emerge Herbicidal Activity CHEAL ([18]; 63 g ai/ha): 99
Post-emerge Herbicidal Activity CHEAL ([18]; 250 g ai/ha): 100
Post-emerge Herbicidal Activity DIGSA ([19]; 63 g ai/ha): 10
Post-emerge Herbicidal Activity DIGSA ([19]; 250 g ai/ha): 50
Post-emerge Herbicidal Activity SORHA ([20]; 63 g ai/ha): 60
Post-emerge Herbicidal Activity SORHA ([20]; 250 g ai/ha): 90
Post-emerge Herbicidal Activity AMBEL ([21]; 63 g ai/ha): 100
Post-emerge Herbicidal Activity AMBEL ([21]; 250 g ai/ha): 100
Post-emerge Herbicidal Activity ABUTH ([22]; 63 g ai/ha): 100
Post-emerge Herbicidal Activity ABUTH ([22]; 250 g ai/ha): 100
Post-emerge Herbicidal Activity IPOHE ([23]; 63 g ai/ha): 100
Post-emerge Herbicidal Activity IPOHE ([23]; 250 g ai/ha): 100
Pre-emerge Herbicidal Activity AMARE (phytotoxicity rating, scale 0-100) ([24]; 63 g ai/ha): 100
Pre-emerge Herbicidal Activity AMARE (phytotoxicity rating, scale 0-100) ([24]; 250 g ai/ha): 100
